Laboratory results: US20250114451A1, “REDUCING POLYSORBATE DEGRADATION IN PROTEIN FO[…] LOW AMOUNTS OF CITRIC ACID” (LONZA LTD, priority 2022, published 2025)

Conditions: 0.1 mM, 1 mM, 10 mM, 20 mM citric acid vs 0 mM; Rituximab Protein A eluate 1.4 mg/mL, 0.02% (w/v) PS80, pH 6; 2 weeks and 4 weeks at 40° C.
Description: A formulation buffer containing 25 mM L-His/L-His HCl at pH 6.0, 600 mM sucrose and 0.05% (w/v) PS80 was prepared. The solution was filtered over a 0.22 μm PVDF Durapore® sterile filter.
A second solution of 40 mM citric acid at pH 6.0 was prepared and filtered over a 0.22 μm PVDF Durapore® sterile filter. In addition to the 40 mM citric acid stock solution, dilutions of the 40 mM citric acid solution at a target concentration of 20 mM, 2 mM and 0.2 mM using water were prepared.
Five protein formulation samples were prepared each by spiking 320 μL of the downstream purification sample (Rituximab Protein A eluate, 18 g/L) into 1680 μL of the above prepared formulation buffer in five different particle-free Nalgene bottles. […]
Analyzing polysorbate degradation in protein formulation samples 1.2 mL of each of the protein formulation sample were aliquoted into particle-free Nalgene tubes and placed into a 40° C. stability chamber. The samples were analysed after 2 week and 4 weeks of incubation using HPLC-FMA against a standard curve of intact PS80 in water.
The HPLC-FMA measurement was performed using a high-performance liquid chromatography (HPLC) system (Waters Alliance e2695) equipped with an isocratic pump, fluorescence detector (Waters 2475 FLR Detector), auto sampler and knitted reaction coil 1 mL (Supelco #57410-U). […] Fluorescence was measured at λex=350 nm and λem=420 nm. […]

Structure (SMILES): O=C(O)CC(O)(CC(=O)O)C(=O)O [citric acid, Citric acid monohydrate]
- PS80 concentration / polysorbate degradation in protein formulation: effective in reducing polysorbate degradation
